Test system: lactobacilli
Assay: Inhibition of growth and acid-production of lactobacilli at different pH
Type: cell-based

What does the source list for “benzoic acid [benzoic acid and/or its sodium salt]”?
inhibition effect on the growth and acid-production of lactobacilli (under a relatively high pH value (e.g., pH>4.6)): became weak; inhibition effect on the growth and acid-production of lactobacilli (under a relatively low pH value (e.g., pH<4.0)): relatively strong inhibition effect
